Data on 4 compounds can be found in US6080733A, “Thioureido-cyclodextrins, utilized in particular to solubilize anti-tumor, and antiparasitic agents and their preparation processes” (Centre National de la Recherche Scientifique, priority 1996, dated 2000).

Each structure is given as a SMILES string. Values joined by “and” are separate entries in the source; they are usually repeats but may differ in a detail not shown here. Identical values can stand only once.

The conditions of series [1]: cited from earlier work.
A short description of series [2]: solubility in water of the thioureido-cyclodextrins. It counts as physicochemical.

Take `CC(=O)O[C@@]12CO[C@@H]1C[C@H](O)[C@@]1(C)C(=O)[C@H](O)C3=C(C)[C@@H](OC(=O)[C@H](O)[C@@H](NC(=O)OC(C)(C)C)c4ccccc4)C[C@@](O)([C@@H](OC(=O)c4ccccc4)[C@H]21)C3(C)C` [Taxotere]: the “solubility in water of Taxotere, raised by encapsulation” value in series [1] (encapsulated in 6^I -S-α-maltosyl-6^I -thiocyclo-maltaheptaose (WO-A-95/19994)) was 6500 µg/mL. In series [1] (without cyclodextrin), the “solubility in water of Taxotere” value is 4 µg/mL.

For `CNC(=S)NC[C@H]1O[C@@H]2O[C@H]3[C@H](O)[C@@H](O)[C@@H](O[C@H]4[C@H](O)[C@@H](O)[C@@H](O[C@H]5[C@H](O)[C@@H](O)[C@@H](O[C@H]6[C@H](O)[C@@H](O)[C@@H](O[C@H]7[C@H](O)[C@@H](O)[C@@H](O[C@H]8[C@H](O)[C@@H](O)[C@@H](O[C@H]1[C@H](O)[C@H]2O)O[C@@H]8CO)O[C@@H]7CO)O[C@@H]6CO)O[C@@H]5CO)O[C@@H]4CO)O[C@@H]3CO` [compound n°1, 6^I -desoxy-6^I -(N'-methylthioureido) cyclomaltoheptaose], the solubility in series [2] was 775000 µg/mL and 640000 µM.

Turning to `CO[C@H]1O[C@H](CNC(=S)NC[C@H]2O[C@@H]3O[C@H]4[C@H](O)[C@@H](O)[C@@H](O[C@H]5[C@H](O)[C@@H](O)[C@@H](O[C@H]6[C@H](O)[C@@H](O)[C@@H](O[C@H]7[C@H](O)[C@@H](O)[C@@H](O[C@H]8[C@H](O)[C@@H](O)[C@@H](O[C@H]9[C@H](O)[C@@H](O)[C@@H](O[C@H]2[C@H](O)[C@H]3O)O[C@@H]9CO)O[C@@H]8CO)O[C@@H]7CO)O[C@@H]6CO)O[C@@H]5CO)O[C@@H]4CO)[C@@H](O)[C@H](O)[C@H]1O` [compound n°2], the solubility in series [2] was 710000 µg/mL and 518000 µM.

Consider `CO[C@H]1O[C@H](CNC(=S)NC[C@H]2O[C@@H]3O[C@H]4[C@H](O)[C@@H](O)[C@@H](O[C@H]5[C@H](O)[C@@H](O)[C@@H](O[C@H]6[C@H](O)[C@@H](O)[C@@H](O[C@H]7[C@H](O)[C@@H](O)[C@@H](O[C@H]8[C@H](O)[C@@H](O)[C@@H](O[C@H]9[C@H](O)[C@@H](O)[C@@H](O[C@H]2[C@H](O)[C@H]3O)O[C@@H]9CO)O[C@@H]8CO)O[C@@H]7CO)O[C@@H]6CO)O[C@@H]5CO)O[C@@H]4CO)[C@@H](OC(C)=O)[C@H](OC(C)=O)[C@H]1OC(C)=O` [compound n°3], for which, in series [2], the solubility in water is 558 g/l and 373 mM.

As usually defined, the solubility is the concentration that dissolves in the medium under given conditions. A lower solubility goes with little dissolved substance.
